Test results taken from US20060069132A1, “Azolecarboxamide herbicides” (priority 2004, published 2006).
Like-named read-outs stand apart in the source and are kept apart here.

What was measured:
barnyardgrass [1] = experiment: Test B pre-/postemergence herbicide test; format: in vivo, Echinochloa crus-galli; conditions: for pest or weed control at 500 g/ha: 500 g ai/ha
How it was run: (§1)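 Test chemicals in a non-phytotoxic solvent mixture with surfactant were applied preemergence to seeded species and postemergence to plants 2-18 cm tall (1- to 4-leaf stage); rice and barnyardgrass were also tested in a flooded paddy at the 2-leaf stage. Visual rating versus controls after 13-15 days in greenhouse, scale 0 (no effect) to 100 (complete control).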

Surinam grass = experiment: Test B pre-/postemergence herbicide test; format: in vivo, Urochloa decumbens; conditions: for pest or weed control at 500 g/ha: 500 g ai/ha
How it was run: (§2)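 Evaluation is visual, comparing treated with control plants on a scale where 0 means no effect and 100 means full control. Treatments were preemergence, or postemergence on seedlings 2–18 cm tall, and held 13–15 days in the greenhouse.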

cocklebur = experiment: Test B pre-/postemergence herbicide test; format: in vivo, Xanthium strumarium; conditions: for pest or weed control at 500 g/ha: 500 g ai/ha
How it was run: as §1

corn = experiment: Test B pre-/postemergence herbicide test; format: in vivo, Zea mays
How it was run: as §2

large crabgrass = experiment: Test B pre-/postemergence herbicide test; format: in vivo, Digitaria sanguinalis; conditions: for pest or weed control at 500 g/ha: 500 g ai/ha
How it was run: as §2

giant foxtail = experiment: Test B pre-/postemergence herbicide test; format: in vivo, Setaria faberi; conditions: for pest or weed control at 500 g/ha: 500 g ai/ha
How it was run: as §2

lambsquarters = experiment: Test B pre-/postemergence herbicide test; format: in vivo, Chenopodium album; conditions: for pest or weed control at 500 g/ha: 500 g ai/ha
How it was run: as §2

morningglory = experiment: Test B pre-/postemergence herbicide test; format: in vivo, Ipomoea coccinea; conditions: for pest or weed control at 500 g/ha: 500 g ai/ha
How it was run: as §1

pigweed = experiment: Test B pre-/postemergence herbicide test; format: in vivo, Amaranthus retroflexus; conditions: for pest or weed control at 500 g/ha: 500 g ai/ha
How it was run: as §2

blackgrass = experiment: Test B postemergence herbicide test; format: in vivo, Alopecurus myosuroides; conditions: Alopecurus myosuroides, post-emergence, 336 h, read-out: Blackgrass plant response rating
How it was run: (§3)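 Paddy species grown to the 2-leaf stage under flooding; blackgrass sprayed postemergence at 2–18 cm (1- to 4-leaf stage). Plants kept in a greenhouse for 13 to 15 days, then visually rated against controls on 0 (no effect) to 100 (complete control).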

wheat = experiment: Test B postemergence herbicide test; format: in vivo, Triticum aestivum; conditions: Triticum aestivum, post-emergence, 336 h, read-out: Wheat plant response rating
How it was run: (§4)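 Postemergence plants were sprayed with formulated test chemicals at 2 to 18 cm height (1- to 4-leaf stage); paddy species were grown to the 2-leaf stage. After 13 to 15 days in a greenhouse, injury was rated visually against untreated controls on a 0–100 scale (0 = no effect, 100 = complete control).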

wild oat = experiment: Test B postemergence herbicide test; format: in vivo, Avena fatua; conditions: Avena fatua, post-emergence, 336 h, read-out: Oat, Wild plant response rating
How it was run: as §4

rice = experiment: Test B flooded paddy test; format: in vivo, Oryza sativa; conditions: Oryza sativa, 336 h, 1000 g ai/ha, scale 0 to 100 (0 no effect, 100 complete control), read-out: Rice plant response rating
How it was run: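 Each value is a visual 0–100 response rating taken against controls 13 to 15 days after treatment in the greenhouse. Plants received formulated chemical postemergence at the 1- to 4-leaf stage or, in flooded paddy, at the 2-leaf stage.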

[2] = test system: small flower umbrella sedge; experiment: Test B flooded paddy test; format: in vivo, Cyperus difformis; conditions: Cyperus difformis, 336 h, 1000 g ai/ha, scale 0 to 100 (0 no effect, 100 complete control), read-out: Sedge, Umbrella plant response rating
How it was run: as §3

ducksalad = experiment: Test B flooded paddy test; format: in vivo, Heteranthera limosa; conditions: Heteranthera limosa, 336 h, 1000 g ai/ha, scale 0 to 100 (0 no effect, 100 complete control), read-out: Ducksalad plant response rating
How it was run: as §3

barnyardgrass [3] = experiment: Test B flooded paddy test; format: in vivo, Echinochloa crus-galli; conditions: Echinochloa crus-galli, 336 h, 1000 g ai/ha, scale 0 to 100 (0 no effect, 100 complete control), read-out: Barnyardgrass plant response rating
How it was run: as §3

[4] = 125 g ai/ha, 0 is no effect, 100 is complete control, preemergence
[5] = 125 g ai/ha, visual rating, scale 0 (no effect) to 100 (complete control)
[6] = postemergence, 500 g ai/ha, scale 0 to 100, 0 is no effect, 100 is complete control

With `CCn1nc2c(c1C(=O)Nc1cc(C(=O)N(C)C)ccc1F)CCC2(C)C` [Compound 352, N-[5-[(dimethylamino)carbonyl]-2-fluorophenyl]-2-ethyl-2,4,5,6-tetrahydro-6,6-dimethyl-3-cyclopentapyrazolecarboxamide] the “Plant response rating (0 to 100 scale), Barnyardgrass” value (barnyardgrass [1]; [4]) was 70, the pest or weed control at 125 g/ha (barnyardgrass [1]; Echinochloa crus-galli, post-emergence, 125 g ai/ha, visual rating, scale 0 (no effect) to 100 (complete control), read-out: Barnyardgrass plant response rating) was 0% and the pest or weed control at 500 g/ha (barnyardgrass [1]; Echinochloa crus-galli, post-emergence, postemergence, scale 0 to 100, 0 is no effect, 100 is complete control, read-out: Barnyardgrass plant response rating) was 10%. The pest or weed control at 500 g/ha (barnyardgrass [1]; Echinochloa crus-galli, pre-emergence, visual rating, 0 = no effect, 100 = complete control, read-out: Plant response rating, Barnyardgrass) was 90%, the “Plant response rating (0 to 100 scale), Surinam Grass” value (Surinam grass; [4]) was 90 and the pest or weed control at 125 g/ha (Surinam grass; Urochloa decumbens, post-emergence, 125 g ai/ha, visual rating, scale 0 (no effect) to 100 (complete control), read-out: Surinam Grass plant response rating) was 10%. For the same compound, the pest or weed control at 500 g/ha (Surinam grass; Urochloa decumbens, post-emergence, postemergence, scale 0 to 100, 0 is no effect, 100 is complete control, read-out: Surinam Grass plant response rating) was 40%, the pest or weed control at 500 g/ha (Surinam grass; Urochloa decumbens, pre-emergence, visual rating, 0 = no effect, 100 = complete control, read-out: Plant response rating, Surinam Grass) was 100% and the “Plant response rating (0 to 100 scale), Cocklebur” value (cocklebur; [4]) was 0. It also gave a pest or weed control at 125 g/ha (cocklebur; Xanthium strumarium, post-emergence, 125 g ai/ha, visual rating, scale 0 (no effect) to 100 (complete control), read-out: Cocklebur plant response rating) of 0%, a pest or weed control at 500 g/ha (cocklebur; Xanthium strumarium, post-emergence, postemergence, scale 0 to 100, 0 is no effect, 100 is complete control, read-out: Cocklebur plant response rating) of 10% and a pest or weed control at 500 g/ha (cocklebur; Xanthium strumarium, pre-emergence, visual rating, 0 = no effect, 100 = complete control, read-out: Plant response rating, Cocklebur) of 0%. For the same compound, the “Plant response rating (0 to 100 scale), Corn” value (corn; [4]) was 60, the plant injury at 125 g/ha (corn; Zea mays, post-emergence, 125 g ai/ha, visual rating, scale 0 (no effect) to 100 (complete control), read-out: Corn plant response rating) was 0% and the plant injury at 500 g/ha (corn; Zea mays, post-emergence, postemergence, 500 g ai/ha, scale 0 to 100, 0 is no effect, 100 is complete control, read-out: Corn plant response rating) was 10%. For the same compound, the Corn plant response rating (crop injury, 0 = no effect, 100 = complete kill) at 500 g/ha (corn; Zea mays, pre-emergence, 500 g ai/ha, visual rating, 0 = no effect, 100 = complete control) was 80%, the “Plant response rating (0 to 100 scale), Crabgrass, Large” value (large crabgrass; [4]) was 90 and the pest or weed control at 125 g/ha (large crabgrass; Digitaria sanguinalis, post-emergence, 125 g ai/ha, visual rating, scale 0 (no effect) to 100 (complete control), read-out: Crabgrass, Large plant response rating) was 20%. The pest or weed control at 500 g/ha (large crabgrass; Digitaria sanguinalis, post-emergence, postemergence, scale 0 to 100, 0 is no effect, 100 is complete control, read-out: Crabgrass, Large plant response rating) was 20%, the pest or weed control at 500 g/ha (large crabgrass; Digitaria sanguinalis, pre-emergence, visual rating, 0 = no effect, 100 = complete control, read-out: Plant response rating, Crabgrass, Large) was 100% and the “Plant response rating (0 to 100 scale), Foxtail, Giant” value (giant foxtail; [4]) was 70. It also gave a pest or weed control at 125 g/ha (giant foxtail; Setaria faberi, post-emergence, 336 h, 125 g ai/ha, visual rating, scale 0 (no effect) to 100 (complete control), read-out: Foxtail, Giant plant response rating) of 10%, a pest or weed control at 500 g/ha (giant foxtail; Setaria faberi, post-emergence, 336 h, postemergence, scale 0 to 100, 0 is no effect, 100 is complete control, read-out: Foxtail, Giant plant response rating) of 30% and a pest or weed control at 500 g/ha (giant foxtail; Setaria faberi, pre-emergence, 336 h, visual rating, 0 = no effect, 100 = complete control, read-out: Plant response rating, Foxtail, Giant) of 100%. For the same compound, the “Plant response rating (0 to 100 scale), Lambsquarters” value (lambsquarters; [4]) was 90, the pest or weed control at 125 g/ha (lambsquarters; Chenopodium album, post-emergence, 336 h, 125 g ai/ha, visual rating, scale 0 (no effect) to 100 (complete control), read-out: Lambsquarters plant response rating) was 10% and the pest or weed control at 500 g/ha (lambsquarters; Chenopodium album, post-emergence, 336 h, postemergence, scale 0 to 100, 0 is no effect, 100 is complete control, read-out: Lambsquarters plant response rating) was 60%. The pest or weed control at 500 g/ha (lambsquarters; Chenopodium album, pre-emergence, 336 h, visual rating, 0 = no effect, 100 = complete control, read-out: Plant response rating, Lambsquarters) was 100%, the “Plant response rating (0 to 100 scale), Morningglory” value (morningglory; [4]) was 0 and the pest or weed control at 125 g/ha (morningglory; Ipomoea, post-emergence, 336 h, 125 g ai/ha, visual rating, scale 0 (no effect) to 100 (complete control), read-out: Morningglory plant response rating) was 10%. The pest or weed control at 500 g/ha (morningglory; Ipomoea, post-emergence, 336 h, postemergence, scale 0 to 100, 0 is no effect, 100 is complete control, read-out: Morningglory plant response rating) was 60%, the pest or weed control at 500 g/ha (morningglory; Ipomoea, pre-emergence, 336 h, visual rating, 0 = no effect, 100 = complete control, read-out: Plant response rating, Morningglory) was 0% and the “Plant response rating (0 to 100 scale), Pigweed” value (pigweed; [4]) was 50. The pest or weed control at 125 g/ha (pigweed; Amaranthus retroflexus, post-emergence, 336 h, 125 g ai/ha, visual rating, scale 0 (no effect) to 100 (complete control), read-out: Pigweed plant response rating) was 10%, the pest or weed control at 500 g/ha (pigweed; Amaranthus retroflexus, post-emergence, 336 h, postemergence, scale 0 to 100, 0 is no effect, 100 is complete control, read-out: Pigweed plant response rating) was 60% and the pest or weed control at 500 g/ha (pigweed; Amaranthus retroflexus, pre-emergence, 336 h, visual rating, 0 = no effect, 100 = complete control, read-out: Plant response rating, Pigweed) was 70%. The pest or weed control at 125 g/ha (blackgrass; [5]) was 10%, the pest or weed control at 500 g/ha (blackgrass; [6]) was 30% and the plant injury at 125 g/ha (wheat; [5]) was 10%. For the same compound, the plant injury at 500 g/ha (wheat; [6]) was 20%, the pest or weed control at 125 g/ha (wild oat; [5]) was 0% and the pest or weed control at 500 g/ha (wild oat; [6]) was 20%. It also gave a plant injury at 1000 g/ha (rice) of 70%, a pest or weed control at 1000 g/ha [2] of 80% and a pest or weed control at 1000 g/ha (ducksalad) of 90%. The pest or weed control at 1000 g/ha (barnyardgrass [3]) was 90%.
